The subject of one experiment is PBMC. The note with it: 12.5 µM.

Regarding `CC[C@H](C)[C@H](N)C(=O)N[C@@H](CC(N)=O)C(=O)N[C@@H](CC(C)C)C(=O)N[C@@H](CCCCN)C(=O)N[C@@H](C)C(=O)N[C@@H](Cc1c[nH]c2ccccc12)C(=O)N[C@@H](C)C(=O)N[C@@H](C)C(=O)N[C@@H](CC(C)C)C(=O)N[C@@H](C)C(=O)N[C@@H](CCCCN)C(=O)N[C@@H](CCCCN)C(=O)N[C@H](C(=O)N[C@@H](CC(C)C)C(N)=O)[C@@H](C)CC` [W6], the “Average (percentage cell inhibition), Dmastoparan MDA-MB231 12.5uM” value in the experiment on MDA-MB-231 cells is 42.8966%. In addition, the “Average (percentage cell inhibition), Mastoparan PBMC” value with PBMC came to 18.297%.

On to `CC[C@H](C)[C@H](N)C(=O)N[C@@H](CC(N)=O)C(=O)N[C@@H](CC(C)C)C(=O)N[C@@H](CCCCN)C(=O)N[C@@H](C)C(=O)N[C@@H](CC(C)C)C(=O)N[C@@H](C)C(=O)N[C@@H](C)C(=O)N[C@@H](CC(C)C)C(=O)N[C@@H](C)C(=O)N[C@@H](CCCCN)C(=O)N[C@H](C(=O)N[C@H](C(=O)N[C@@H](CC(C)C)C(N)=O)[C@@H](C)CC)[C@@H](C)CC` [I12], for which, in the experiment on MDA-MB-231 cells, the “Average (percentage cell inhibition), Dmastoparan MDA-MB231 12.5uM” value was 44.3343%. Further, the “Average (percentage cell inhibition), Mastoparan PBMC” value in the experiment on PBMC stood at 20.8332%.

Take `CC[C@H](C)[C@H](N)C(=O)N[C@@H](CC(N)=O)C(=O)N[C@@H](CC(C)C)C(=O)N[C@@H](CCCCN)C(=O)N[C@@H](C)C(=O)N[C@@H](CC(C)C)C(=O)N[C@@H](C)C(=O)N[C@@H](C)C(=O)N[C@@H](CC(C)C)C(=O)N[C@@H](C)C(=O)N[C@@H](CCCCN)C(=O)N[C@@H](CCCCN)C(=O)N[C@H](C(=O)N[C@@H](CO)C(N)=O)[C@@H](C)CC` [S14]: in the experiment with MDA-MB-231 cells, the “Average (percentage cell inhibition), Dmastoparan MDA-MB231 12.5uM” value was found to be 38.8299%. The “Average (percentage cell inhibition), Mastoparan PBMC” value with PBMC is -3.76%.

For the compound `CC[C@H](C)[C@H](N)C(=O)N[C@@H](CC(N)=O)C(=O)N[C@@H](CC(C)C)C(=O)N[C@@H](CCCNC(=N)N)C(=O)N[C@@H](C)C(=O)N[C@@H](CC(C)C)C(=O)N[C@@H](C)C(=O)N[C@@H](C)C(=O)N[C@@H](CC(C)C)C(=O)N[C@@H](C)C(=O)N[C@@H](CCCCN)C(=O)N[C@@H](CCCCN)C(=O)N[C@H](C(=O)N[C@@H](CC(C)C)C(N)=O)[C@@H](C)CC` [R4], the “Average (percentage cell inhibition), Dmastoparan MDA-MB231 12.5uM” value in the experiment with MDA-MB-231 cells is 36.9563%. Moreover, the “Average (percentage cell inhibition), Mastoparan PBMC” value in the experiment with PBMC was found to be 0.667%.

With `CC[C@H](C)[C@H](N)C(=O)N[C@@H](CC(N)=O)C(=O)N[C@@H](CC(C)C)C(=O)N[C@@H](CCCCN)C(=O)N[C@@H](C)C(=O)N[C@@H](CC(C)C)C(=O)N[C@@H](C)C(=O)N[C@@H](C)C(=O)N[C@@H](CC(C)C)C(=O)N[C@@H](C)C(=O)N[C@@H](CCCCN)C(=O)N1CCC[C@H]1C(=O)N[C@H](C(=O)N[C@@H](CC(C)C)C(N)=O)[C@@H](C)CC` [P12], the “Average (percentage cell inhibition), Dmastoparan MDA-MB231 12.5uM” value with MDA-MB-231 cells was -19.0406%. Further, the “Average (percentage cell inhibition), Mastoparan PBMC” value in the experiment on PBMC is on record as -2.814%.

With `CC[C@H](C)[C@H](N)C(=O)N[C@@H](CC(N)=O)C(=O)N[C@@H](CC(C)C)C(=O)N[C@@H](CCCCN)C(=O)N[C@H](C(=O)N[C@@H](CC(C)C)C(=O)N[C@@H](C)C(=O)N[C@@H](C)C(=O)N[C@@H](CC(C)C)C(=O)N[C@@H](C)C(=O)N[C@@H](CCCCN)C(=O)N[C@@H](CCCCN)C(=O)N[C@H](C(=O)N[C@@H](CC(C)C)C(N)=O)[C@@H](C)CC)C(C)C` [V5], the “Average (percentage cell inhibition), Dmastoparan MDA-MB231 12.5uM” value in the experiment with MDA-MB-231 cells is 36.2551%. Also, the “Average (percentage cell inhibition), Mastoparan PBMC” value with PBMC amounted to 6.235%.

For the compound `CC[C@H](C)[C@H](N)C(=O)N[C@@H](CC(N)=O)C(=O)NCC(=O)N[C@@H](CCCCN)C(=O)N[C@@H](C)C(=O)N[C@@H](CC(C)C)C(=O)N[C@@H](C)C(=O)N[C@@H](C)C(=O)N[C@@H](CC(C)C)C(=O)N[C@@H](C)C(=O)N[C@@H](CCCCN)C(=O)N[C@@H](CCCCN)C(=O)N[C@H](C(=O)N[C@@H](CC(C)C)C(N)=O)[C@@H](C)CC` [G3], the “Average (percentage cell inhibition), Dmastoparan MDA-MB231 12.5uM” value in the experiment on MDA-MB-231 cells worked out at 40.6724%. In addition, the “Average (percentage cell inhibition), Mastoparan PBMC” value in the experiment on PBMC is given as 8.745%.

On to `CC[C@H](C)[C@H](N)C(=O)N[C@@H](CC(N)=O)C(=O)N[C@@H](CC(C)C)C(=O)N[C@@H](CCCCN)C(=O)N[C@@H](C)C(=O)N[C@@H](CC(C)C)C(=O)N[C@@H](C)C(=O)N[C@@H](C)C(=O)N[C@@H](CC(C)C)C(=O)N[C@@H](C)C(=O)N[C@@H](CCCCN)C(=O)N[C@@H](CC(C)C)C(=O)N[C@H](C(=O)N[C@@H](CC(C)C)C(N)=O)[C@@H](C)CC` [L12], for which the “Average (percentage cell inhibition), Dmastoparan MDA-MB231 12.5uM” value in the experiment on MDA-MB-231 cells was found to be 85.0992%. The “Average (percentage cell inhibition), Mastoparan PBMC” value with PBMC stood at 80.1821%.

Consider `CC[C@H](C)[C@H](N)C(=O)N[C@@H](CC(N)=O)C(=O)N[C@@H](CC(C)C)C(=O)N[C@@H](CCCCN)C(=O)NCC(=O)N[C@@H](CC(C)C)C(=O)N[C@@H](C)C(=O)N[C@@H](C)C(=O)N[C@@H](CC(C)C)C(=O)N[C@@H](C)C(=O)N[C@@H](CCCCN)C(=O)N[C@@H](CCCCN)C(=O)N[C@H](C(=O)N[C@@H](CC(C)C)C(N)=O)[C@@H](C)CC` [G5], for which, in the experiment on MDA-MB-231 cells, the “Average (percentage cell inhibition), Dmastoparan MDA-MB231 12.5uM” value amounted to 39.6978%. The “Average (percentage cell inhibition), Mastoparan PBMC” value in the experiment with PBMC amounted to 4.313%.

For `CC[C@H](C)[C@H](N)C(=O)N[C@@H](CC(N)=O)C(=O)N[C@@H](CC(C)C)C(=O)N[C@@H](CCCCN)C(=O)N[C@@H](C)C(=O)N[C@@H](CC(C)C)C(=O)N[C@@H](C)C(=O)N[C@@H](C)C(=O)N[C@@H](CC(C)C)C(=O)N[C@H](C(=O)N[C@@H](CCCCN)C(=O)N[C@@H](CCCCN)C(=O)N[C@H](C(=O)N[C@@H](CC(C)C)C(N)=O)[C@@H](C)CC)[C@@H](C)O` [T10], the “Average (percentage cell inhibition), Dmastoparan MDA-MB231 12.5uM” value with MDA-MB-231 cells came to 27.2715%. For the same compound, in the experiment with PBMC, the “Average (percentage cell inhibition), Mastoparan PBMC” value was found to be 8.853%.

In the case of `CC[C@H](C)[C@H](N)C(=O)N[C@@H](Cc1c[nH]c2ccccc12)C(=O)N[C@@H](CC(C)C)C(=O)N[C@@H](CCCCN)C(=O)N[C@@H](C)C(=O)N[C@@H](CC(C)C)C(=O)N[C@@H](C)C(=O)N[C@@H](C)C(=O)N[C@@H](CC(C)C)C(=O)N[C@@H](C)C(=O)N[C@@H](CCCCN)C(=O)N[C@@H](CCCCN)C(=O)N[C@H](C(=O)N[C@@H](CC(C)C)C(N)=O)[C@@H](C)CC` [W2], the “Average (percentage cell inhibition), Dmastoparan MDA-MB231 12.5uM” value in the experiment with MDA-MB-231 cells was determined as 98.3458%. Moreover, in the experiment with PBMC, the “Average (percentage cell inhibition), Mastoparan PBMC” value came out at 92.9669%.

For `CC[C@H](C)[C@H](N)C(=O)N[C@@H](CC(N)=O)C(=O)N[C@@H](CC(C)C)C(=O)N[C@@H](CCCCN)C(=O)N[C@@H](C)C(=O)N[C@@H](CC(C)C)C(=O)N[C@@H](C)C(=O)N[C@@H](Cc1c[nH]c2ccccc12)C(=O)N[C@@H](CC(C)C)C(=O)N[C@@H](C)C(=O)N[C@@H](CCCCN)C(=O)N[C@@H](CCCCN)C(=O)N[C@H](C(=O)N[C@@H](CC(C)C)C(N)=O)[C@@H](C)CC` [W8], the “Average (percentage cell inhibition), Dmastoparan MDA-MB231 12.5uM” value with MDA-MB-231 cells stood at 62.4515%. For the same compound, in the experiment with PBMC, the “Average (percentage cell inhibition), Mastoparan PBMC” value was found to be 51.7838%.

On to `CC[C@H](C)[C@H](N)C(=O)N[C@H](C(=O)N[C@@H](CC(C)C)C(=O)N[C@@H](CCCCN)C(=O)N[C@@H](C)C(=O)N[C@@H](CC(C)C)C(=O)N[C@@H](C)C(=O)N[C@@H](C)C(=O)N[C@@H](CC(C)C)C(=O)N[C@@H](C)C(=O)N[C@@H](CCCCN)C(=O)N[C@@H](CCCCN)C(=O)N[C@H](C(=O)N[C@@H](CC(C)C)C(N)=O)[C@@H](C)CC)C(C)C` [V2], for which the “Average (percentage cell inhibition), Dmastoparan MDA-MB231 12.5uM” value with MDA-MB-231 cells came to 91.4206%. The “Average (percentage cell inhibition), Mastoparan PBMC” value with PBMC is 65.6691%.

Take `CC[C@H](C)[C@H](N)C(=O)N[C@@H](CC(N)=O)C(=O)N[C@@H](Cc1ccc(O)cc1)C(=O)N[C@@H](CCCCN)C(=O)N[C@@H](C)C(=O)N[C@@H](CC(C)C)C(=O)N[C@@H](C)C(=O)N[C@@H](C)C(=O)N[C@@H](CC(C)C)C(=O)N[C@@H](C)C(=O)N[C@@H](CCCCN)C(=O)N[C@@H](CCCCN)C(=O)N[C@H](C(=O)N[C@@H](CC(C)C)C(N)=O)[C@@H](C)CC` [Y3]: the “Average (percentage cell inhibition), Dmastoparan MDA-MB231 12.5uM” value in the experiment on MDA-MB-231 cells amounted to 39.9685%. Also, the “Average (percentage cell inhibition), Mastoparan PBMC” value in the experiment with PBMC amounted to 5.097%.

On to `CC[C@H](C)[C@H](N)C(=O)N[C@@H](CC(N)=O)C(=O)N[C@@H](CC(C)C)C(=O)N[C@@H](CCCCN)C(=O)N[C@@H](CC(N)=O)C(=O)N[C@@H](CC(C)C)C(=O)N[C@@H](C)C(=O)N[C@@H](C)C(=O)N[C@@H](CC(C)C)C(=O)N[C@@H](C)C(=O)N[C@@H](CCCCN)C(=O)N[C@@H](CCCCN)C(=O)N[C@H](C(=O)N[C@@H](CC(C)C)C(N)=O)[C@@H](C)CC` [N5], for which the “Average (percentage cell inhibition), Dmastoparan MDA-MB231 12.5uM” value with MDA-MB-231 cells is listed as 45.6062%. Moreover, the “Average (percentage cell inhibition), Mastoparan PBMC” value in the experiment on PBMC is on record as 6.591%.

Turning to `CC[C@H](C)[C@H](N)C(=O)N[C@@H](CC(N)=O)C(=O)N[C@@H](CC(C)C)C(=O)N[C@@H](CCCCN)C(=O)N[C@@H](C)C(=O)N[C@@H](CC(C)C)C(=O)N[C@@H](Cc1c[nH]cn1)C(=O)N[C@@H](C)C(=O)N[C@@H](CC(C)C)C(=O)N[C@@H](C)C(=O)N[C@@H](CCCCN)C(=O)N[C@@H](CCCCN)C(=O)N[C@H](C(=O)N[C@@H](CC(C)C)C(N)=O)[C@@H](C)CC` [H7], the “Average (percentage cell inhibition), Dmastoparan MDA-MB231 12.5uM” value in the experiment with MDA-MB-231 cells came to 37.3401%. Further, in the experiment on PBMC, the “Average (percentage cell inhibition), Mastoparan PBMC” value was 4.935%.

Consider `CC[C@H](C)[C@H](N)C(=O)N[C@@H](CC(N)=O)C(=O)N[C@@H](CC(C)C)C(=O)N[C@@H](CCCCN)C(=O)N[C@@H](C)C(=O)N[C@@H](CC(C)C)C(=O)N[C@@H](C)C(=O)N[C@@H](C)C(=O)N[C@@H](CC(C)C)C(=O)N[C@H](C(=O)N[C@@H](CCCCN)C(=O)N[C@@H](CCCCN)C(=O)N[C@H](C(=O)N[C@@H](CC(C)C)C(N)=O)[C@@H](C)CC)C(C)C` [V10], for which the “Average (percentage cell inhibition), Dmastoparan MDA-MB231 12.5uM” value in the experiment on MDA-MB-231 cells is 85.9235%. For the same compound, in the experiment with PBMC, the “Average (percentage cell inhibition), Mastoparan PBMC” value is on record as 37.352%.

With `CC[C@H](C)[C@H](N)C(=O)N[C@@H](CC(N)=O)C(=O)N[C@@H](CC(C)C)C(=O)N[C@@H](CCCCN)C(=O)N[C@@H](C)C(=O)N[C@@H](CC(C)C)C(=O)N[C@@H](C)C(=O)N[C@@H](C)C(=O)N[C@@H](CC(C)C)C(=O)N[C@@H](Cc1c[nH]c2ccccc12)C(=O)N[C@@H](CCCCN)C(=O)N[C@@H](CCCCN)C(=O)N[C@H](C(=O)N[C@@H](CC(C)C)C(N)=O)[C@@H](C)CC` [W10], in the experiment with MDA-MB-231 cells, the “Average (percentage cell inhibition), Dmastoparan MDA-MB231 12.5uM” value worked out at 49.5675%. Besides, the “Average (percentage cell inhibition), Mastoparan PBMC” value with PBMC was 15.3863%.
